Source: publication PMC4519324, “Substrate Specificity, Inhibitor Selectivity and Structure-Function Relationships of Aldo-Keto Reductase 1B15: A Novel Human Retinaldehyde Reductase” (PLoS ONE, 2015)
Where two headings read alike, the source gives them in different places.

How the values were obtained:
AKR1B15 [1] = target: T1, AKR1B15 (Homo sapiens, UniProt C9JRZ8); assay: Inhibition screening with D,L-glyceraldehyde as substrate; format: biochemical; details: 6 mM D,L-glyceraldehyde as substrate, 0.1% DMSO
T1 construct: made in house; host or cells: E. coli BL21(DE3), with or without chaperone plasmids pBB540/pBB542
T1 sequence (C9JRZ8 whole entry): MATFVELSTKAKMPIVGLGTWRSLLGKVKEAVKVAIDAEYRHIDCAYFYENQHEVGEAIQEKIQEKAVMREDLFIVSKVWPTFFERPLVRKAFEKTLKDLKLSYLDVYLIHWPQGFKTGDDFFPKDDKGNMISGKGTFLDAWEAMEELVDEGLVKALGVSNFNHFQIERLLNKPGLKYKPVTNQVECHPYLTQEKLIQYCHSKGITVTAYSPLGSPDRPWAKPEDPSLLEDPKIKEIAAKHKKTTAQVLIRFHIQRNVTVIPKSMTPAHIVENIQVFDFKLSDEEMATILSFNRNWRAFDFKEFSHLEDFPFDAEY
Description: (§1) Activities were determined in 100 mM sodium phosphate, pH 7.0, at 25°C, using 0.2 mM NADPH in 0.2-cm path length cuvettes, with freshly prepared substrate solutions. One unit of activity is defined as the amount of enzyme required to transform 1 μmol of substrate per min at 25°C.
(§2) All compounds tested as inhibitors were dissolved in DMSO and assayed in a final concentration of 0.1% (v/v) DMSO using 6 mM D,L-glyceraldehyde as a substrate. Kinetic constant and IC50 (compound concentration that inhibits enzymatic activity by 50%) values were calculated by fitting the initial rates to the appropriate equation using Grafit 5.0 (Eritacus Software) and values were given as the mean ± standard error of three experiments. Standard error values were less than 20% of the mean values.

AKR1B10 [2] = target: T2, AKR1B10 (Homo sapiens, UniProt O60218); details: AKR1B10, values in Table 3; cited from earlier work
T2 construct: made in house
T2 sequence (O60218 whole entry): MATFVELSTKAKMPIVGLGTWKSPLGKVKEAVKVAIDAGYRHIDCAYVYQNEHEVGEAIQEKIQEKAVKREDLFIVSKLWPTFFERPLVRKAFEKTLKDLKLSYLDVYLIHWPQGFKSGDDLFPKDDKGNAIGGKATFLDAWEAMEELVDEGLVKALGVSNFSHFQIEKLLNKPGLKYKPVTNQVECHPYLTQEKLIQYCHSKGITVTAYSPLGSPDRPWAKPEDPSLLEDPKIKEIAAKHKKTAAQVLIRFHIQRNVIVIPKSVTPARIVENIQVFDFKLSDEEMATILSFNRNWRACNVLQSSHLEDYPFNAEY

AKR1B10 [3] = target: T2, AKR1B10; assay: Inhibition of enzymatic activity with D,L-glyceraldehyde as substrate; format: biochemical
Description: as §1, §2

AKR1B15 [4] = target: T1, AKR1B15; assay: Spectrophotometric activity assay (NADPH decrease at 340 nm), substrate kinetics; format: biochemical; details: 3 mM D,L-glyceraldehyde, read-out: Km (μM) for cofactor NADPH
AKR1B10 [5] = target: T2, AKR1B10; assay: NADPH binding by quenching of Trp intrinsic fluorescence; details: 0.5 μM protein, 20 mM sodium phosphate, pH 7.0, 25°C, read-out: K D value for NADPH
Description: (§3) NADPH binding was analyzed by quenching of Trp intrinsic fluorescence of 0.5 μM protein, using a Cary Eclipse (Varian) fluorimeter, in 20 mM sodium phosphate, pH 7.0, at 25°C in a final volume of 1 mL. The excitation wavelength was 290 nm and the emission wavelength was monitored at 340 nm. AKR1B10 was used as a control. The dissociation constant (K D) values were calculated by nonlinear fitting of experimental data, using Grafit 5.0 (Eritacus Software), to the Morrison equation: ΔF=ΔFmax·[E]+[NADPH]+KD−([E]+[NADPH]+KD)^2−4·[E]·[NADPH]/2·[E]

AKR1B15 [6] = target: T1, AKR1B15; assay: as above; details: 0.5 μM protein, 20 mM sodium phosphate, pH 7.0, 25°C, read-out: K D value for NADPH
Description: as §3

AKR1B1 = target: T3, AKR1B1 (Homo sapiens, UniProt P15121); details: read-out: Km (μM) for cofactor NADPH; cited from earlier work
T3 construct: made in house

AKR1B10 [7] = target: T2, AKR1B10; assay: Spectrophotometric activity assay (NADPH decrease at 340 nm), substrate kinetics; format: biochemical; details: 60 mM D,L-glyceraldehyde, read-out: Km (μM) for cofactor NADPH

IC50 (AKR1B15 [1]) [nM] | IC50 (AKR1B10 [3]) [nM] | Km (AKR1B15 [4]) [µM] | Kd (AKR1B10 [5]) [nM] | Kd (AKR1B15 [6]) [nM] | Km (AKR1B10 [7]) [µM] | SMILES | IC50 (AKR1B10 [2]) [nM] | Km (AKR1B1) [µM]
> 100000 | 6 |  |  |  |  | COc1ccc2c(C(=S)N(C)CC(=O)O)cccc2c1C(F)(F)F [Tolrestat] | < 10000 | 
 |  | 5.7 | 92 ± 35 | 113 ± 9 | 10 | NC(=O)C1=CN([C@@H]2O[C@H](COP(=O)(O)OP(=O)(O)OC[C@H]3O[C@@H](n4cnc5c(N)ncnc54)[C@H](OP(=O)(O)O)[C@@H]3O)[C@@H](O)[C@H]2O)C=CC1 [NADPH] |  | 2.9
